“Also recorded” adds a separate entry of the source.
target: α-glucosidase from recombinant Saccharomyces cerevisiae (Saccharomyces cerevisiae, UniProt P53341); assay: α-glucosidase inhibitory activity assay; type: biochemical; conditions: comparison among the fractions and compounds 1-8 isolated from CCF
Sequence (P53341 whole entry): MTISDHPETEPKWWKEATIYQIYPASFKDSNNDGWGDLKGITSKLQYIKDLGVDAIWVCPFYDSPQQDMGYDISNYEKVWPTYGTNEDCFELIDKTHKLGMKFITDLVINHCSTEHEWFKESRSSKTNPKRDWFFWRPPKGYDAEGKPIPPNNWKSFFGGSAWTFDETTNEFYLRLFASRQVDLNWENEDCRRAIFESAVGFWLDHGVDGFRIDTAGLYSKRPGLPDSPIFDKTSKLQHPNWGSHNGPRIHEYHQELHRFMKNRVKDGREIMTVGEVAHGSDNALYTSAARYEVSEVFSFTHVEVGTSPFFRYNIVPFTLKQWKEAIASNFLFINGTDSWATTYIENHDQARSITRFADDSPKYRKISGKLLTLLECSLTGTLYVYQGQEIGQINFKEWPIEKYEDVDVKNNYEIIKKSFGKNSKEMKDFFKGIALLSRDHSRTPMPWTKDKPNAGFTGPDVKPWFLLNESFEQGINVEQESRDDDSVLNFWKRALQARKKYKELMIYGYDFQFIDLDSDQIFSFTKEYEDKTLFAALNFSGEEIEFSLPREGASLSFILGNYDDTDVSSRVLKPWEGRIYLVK

| Compound | α-glucosidase inhibitory activity (comparison in words) |
| --- | --- |
| O=c1c(O[C@@H]2O[C@H](CO)[C@H](O)[C@H](O)[C@H]2O)c(-c2ccc(O)c(O)c2)oc2cc(O)cc(O)c12 [Compound 4, hyperin] | more significant inhibitory activity against α-glucosidase than other mono-hydroxy flavonoids |
| O=c1c(O)c(-c2ccc(O)cc2)oc2cc(O[C@@H]3O[C@H](CO)[C@@H](O)[C@H](O)[C@H]3O)cc(O)c12 [Compound 8, kaempferol-7-O-β-D-glucoside] | higher α-glucosidase inhibitory activity than the flavonoid |
| O=c1c(O)c(-c2ccc(O)cc2)oc2cc(O)cc(O)c12 [Compound 3, kaempferol] | higher α-glucosidase inhibitory activity than the flavonoid |
| O=c1c(O)c(-c2ccc(O)c(O)c2)oc2cc(O)cc(O)c12 [Compound 6, quercetin] | higher α-glucosidase inhibitory activity than the flavonoid; also recorded: more significant inhibitory activity against α-glucosidase than other mono-hydroxy flavonoids; also recorded: highest α-glucosidase inhibitory activity |
